Measurements reported in ChEMBL document CHEMBL1201862, “PubChem BioAssay data set” (2004).
Calls of active or inactive are those of the source.

Tests used:
[1] = viability loss of HMLE_sh_eGFP cells – cell-based, luminescence, counter-screen for HMLE_sh_ECad selective toxicity project, dose response (AID 463074); assay type: functional, Homo sapiens;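 further: HMLE human mammary epithelial cells expressing control shRNA against eGFP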
[2] = Luminescence Cell-Based Dose Retest to Confirm Inhibitors of Cancer Stem Cells. [Related pubchem assays (depositor defined):AID2717, AID2721]; assay type: functional; conditions: Homo sapiens
[3] = COV362 cell viability loss – plate reader, dry powder, SA12, cytotoxicity control for PAX8 inhibitor project, dose response (AID 743144); assay type: functional, cell-based
[4] = Trypanosoma cruzi growth suppression in host cells – NIH3T3 host cells, beta-gal luminescence, confirmation (AID 2044); assay type: functional, cell-based;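 further: intracellular parasites grown in NIH/3T3 mouse fibroblasts as host cells; luminescent beta-galactosidase reporter signal from transgenic T. cruzi replicating inside host cells; inhibitors lower the luminescence signal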
[5] = OVCAR4 cell viability loss – plate reader, dry powder, SA11, cytotoxicity control for PAX8 inhibitor project, dose response (AID 743150); assay type: functional, cell-based; conditions: OVCAR-4
[6] = COV434 cell viability loss – plate reader, dry powder, SA7, cytotoxicity control for PAX8 inhibitor project, dose response (AID 743145); assay type: functional, cell-based
Escherichia coli = test: microbe, parasite or virus in culture
[7] = target: T1, Probable nicotinate-nucleotide adenylyltransferase (Staphylococcus aureus (strain N315), UniProt P65502); assay type: functional, Staphylococcus aureus subsp. aureus N315; conditions: read-out: IC50_Mean;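 on IC50 Mean: confirmatory dose-response retesting of NadD inhibitor hits first found in an ultra-high-throughput screen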
[8] = target: T1, Probable nicotinate-nucleotide adenylyltransferase; assay type: functional, Staphylococcus aureus subsp. aureus N315
cells [9] = assay type: functional, cell-based
[10] = decrease of insulin promoter-GFP reporter – imaging, high-content screening, mouse beta cells (AID 1628); assay type: functional; conditions: MIN6
[11] = reduction of Shn3 3'UTR-driven luciferase in osteoblasts – cell-based, Clone20 osteoblasts, firefly luciferase, cherry-picked, dose response (AID 624132); assay type: functional;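 further: firefly luciferase luminescence from reporter carrying the Shn3 3'UTR in osteoblasts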
[12] = target: T2, Type-1 angiotensin II receptor (Homo sapiens, UniProt P30556); test: agonist activity at AGTR1 – cell-based, uHTS hits, selectivity assay for APJ receptor agonist project, dose response (AID 488865); assay type: functional;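 further: beta-arrestin recruitment to AT1 measured by enzyme fragment complementation luminescence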
T2 sequence (P30556 whole entry): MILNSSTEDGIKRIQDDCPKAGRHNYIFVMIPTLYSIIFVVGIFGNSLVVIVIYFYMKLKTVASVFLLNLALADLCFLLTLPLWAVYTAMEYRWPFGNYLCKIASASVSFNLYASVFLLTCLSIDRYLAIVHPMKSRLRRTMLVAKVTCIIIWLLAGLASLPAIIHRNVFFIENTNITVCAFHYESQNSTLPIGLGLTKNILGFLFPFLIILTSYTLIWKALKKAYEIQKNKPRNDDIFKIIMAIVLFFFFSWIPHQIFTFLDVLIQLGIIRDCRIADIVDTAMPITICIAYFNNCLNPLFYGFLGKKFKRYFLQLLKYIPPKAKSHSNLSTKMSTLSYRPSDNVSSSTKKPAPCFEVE

[13] = toxicity toward immortalized ovarian surface epithelium – cell-based, plate reader, dry powder samples, cytotoxicity control for PAX8 inhibitor project, dose response (AID 743045); assay type: functional
[14] = non-specific 3'UTR reporter inhibition in Clone20-Shn3RL – cell-based, Renilla luciferase, cherry-picked, counter-screen for Shn3 inhibitor project, dose response (AID 624133); assay type: functional
[15] = PAX5 cellular inhibition readout – cell-based, plate reader, dry powder samples, selectivity assay for PAX8 inhibitor project, dose response (AID 743047); assay type: functional;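 further: HEK293 cells carrying a Pax5 driven CD19 promoter luciferase reporter; potency of inhibitors that lower reporter luminescence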
Streptococcus = test: GAS UMAA2166 growth inhibition – luminescence, BacTiterGlo, counter-screen for streptokinase expression inhibitor project, dose response (AID 1915); assay type: functional, organism-based;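 further: potency for reduction of bacterial viability or growth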
[16] = test system: Streptococcus sp. 'group A'; test: Streptococcus pyogenes SK(-)GAS viability under kanamycin – luminescence, BacTiterGlo, confirmation, counter-screen for streptokinase expression inhibitor project, dose response (AID 1900); assay type: functional, organism-based
[17] = OV-90 cell viability loss – plate reader, dry powder, SA8, PAX8 inhibitor project, dose response (AID 743149); assay type: functional, cell-based
[18] = loss of viability in HepG2 cells – cell-based, CellTiter-Glo, cherry-picked, cytotoxicity control for Shn3 inhibitor project, dose response (AID 624134); assay type: functional
[19] = NIH3T3 cell viability loss – ATP luminescence, mouse fibroblasts, counter-screen, dose response (AID 2010); assay type: functional, cell-based;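 further: cells exposed to compound for about 90 hours before reading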
[20] = MIN6 cell viability loss – mouse insulinoma, cytotoxicity control, dose response (AID 2122); assay type: functional;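 further: confirmatory high-throughput counterscreen run to flag cytotoxic compounds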
Streptokinase A = target: T3, Streptokinase A (Streptococcus pyogenes serotype M1, UniProt P10520); test: viability-normalized secreted streptokinase activity reduction – plasminogen activation absorbance, OD405, dose response (AID 1914); assay type: functional, Streptococcus pyogenes M1 GAS;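 further: secreted streptokinase activity via plasminogen activation per viability signal from cell pellet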
T3 sequence (P10520 whole entry): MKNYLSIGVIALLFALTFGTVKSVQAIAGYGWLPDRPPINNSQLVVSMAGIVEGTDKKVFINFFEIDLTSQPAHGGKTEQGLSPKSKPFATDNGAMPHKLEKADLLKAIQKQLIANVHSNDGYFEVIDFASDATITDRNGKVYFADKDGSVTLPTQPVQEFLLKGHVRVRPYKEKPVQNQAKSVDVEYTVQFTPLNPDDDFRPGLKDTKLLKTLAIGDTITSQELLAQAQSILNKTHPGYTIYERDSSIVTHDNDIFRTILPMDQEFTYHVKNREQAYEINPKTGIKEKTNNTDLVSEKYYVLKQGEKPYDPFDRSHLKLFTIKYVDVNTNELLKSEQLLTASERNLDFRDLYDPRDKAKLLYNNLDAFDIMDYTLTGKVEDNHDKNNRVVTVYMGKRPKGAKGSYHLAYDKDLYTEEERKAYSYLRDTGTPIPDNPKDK

[21] = inhibitors acting on PAX2 in cells – cell-based, plate reader, dry powder samples, selectivity assay for PAX8 inhibitor project, dose response (AID 743048); assay type: functional;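 further: HEK293 cells carrying a WT1 promoter luciferase reporter driven by expressed Pax2; potency is for inhibition of Pax2 driven reporter signal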
cells [22] = assay type: functional, cell-based; remark: listed apart in the source
[23] = A2780 cell killing – plate reader, dry powder samples, cytotoxicity control, dose response (AID 743046); assay type: functional, cell-based
[24] = OVCAR-3 cell viability loss – plate reader, dry powder samples, PAX8 inhibitor project, dose response (AID 743044); assay type: functional, cell-based
INS1 = test: INS-1E survival protection against cytokine death – cell-based, luminescence, retest, dose response (AID 449756); assay type: functional; conditions: Rattus norvegicus;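 further: cell death triggered by IL-1 beta plus TNF-alpha plus IFN-gamma mixture; protective hits raise ATP signal compared with cytokine alone wells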
Paired box protein Pax-8 = Paired box protein Pax-8 (Homo sapiens, UniProt Q06710); test: PAX8 transcriptional activity inhibition in RMG-I – RMG-I cells, luciferase, cherry-pick, dose response (AID 687027); assay type: functional, cell-based;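 further: luciferase reporter driven by Pax8 target thyroperoxidase promoter measured by SteadyGlo luminescence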
[25] = PAX8-dependent cell viability loss – plate reader, dry powder, dose response (AID 743049); assay type: functional, cell-based
[26] = IGROV1 cell killing – plate reader, dry powder samples, PAX8 inhibitor project, dose response (AID 743043); assay type: functional, cell-based; conditions: IGROV-1
Keap1/Nrf2 = Keap1/Nrf2 (Homo sapiens, UniProt Q14145); test: disruptors of Keap1 binding to Nrf2 peptide – biochemical, fluorescence polarization, cherry-picked samples, dose response (AID 588683)
[27] = target: T4, Zinc finger protein mex-5 (Caenorhabditis elegans, UniProt Q9XUB2); test: potency of MEX-5 RNA-binding blockers – biochemical, C. elegans, fluorescence polarization, dose response (AID 1960)
T4 sequence (Q9XUB2 whole entry): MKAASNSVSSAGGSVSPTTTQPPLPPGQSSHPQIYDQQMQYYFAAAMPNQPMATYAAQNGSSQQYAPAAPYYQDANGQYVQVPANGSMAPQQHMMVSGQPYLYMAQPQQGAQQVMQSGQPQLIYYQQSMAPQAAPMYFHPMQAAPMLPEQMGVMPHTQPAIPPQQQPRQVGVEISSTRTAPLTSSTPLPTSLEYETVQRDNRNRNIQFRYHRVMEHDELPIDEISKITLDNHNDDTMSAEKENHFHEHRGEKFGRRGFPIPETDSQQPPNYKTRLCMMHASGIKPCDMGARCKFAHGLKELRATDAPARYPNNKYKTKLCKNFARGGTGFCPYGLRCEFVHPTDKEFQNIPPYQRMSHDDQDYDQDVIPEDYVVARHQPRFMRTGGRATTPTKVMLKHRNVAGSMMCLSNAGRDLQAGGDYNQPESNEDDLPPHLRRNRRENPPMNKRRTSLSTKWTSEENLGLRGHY

[28] = target: T5, Heat shock factor protein 1 (Mus musculus, UniProt P38532); test: enhancement of HSF1-driven luciferase signal – cell-based, NIH3T3, luminescence, dose retest, confirmation (AID 435004); assay type: functional;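 further: stress induced by proteasome inhibitor MG132 added 30 min after compound; luciferase reporter driven by HSF1 response element in NIH3T3 cells; actives raise luminescence as potentiators of the MG132 stress response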
T5 sequence (P38532 whole entry): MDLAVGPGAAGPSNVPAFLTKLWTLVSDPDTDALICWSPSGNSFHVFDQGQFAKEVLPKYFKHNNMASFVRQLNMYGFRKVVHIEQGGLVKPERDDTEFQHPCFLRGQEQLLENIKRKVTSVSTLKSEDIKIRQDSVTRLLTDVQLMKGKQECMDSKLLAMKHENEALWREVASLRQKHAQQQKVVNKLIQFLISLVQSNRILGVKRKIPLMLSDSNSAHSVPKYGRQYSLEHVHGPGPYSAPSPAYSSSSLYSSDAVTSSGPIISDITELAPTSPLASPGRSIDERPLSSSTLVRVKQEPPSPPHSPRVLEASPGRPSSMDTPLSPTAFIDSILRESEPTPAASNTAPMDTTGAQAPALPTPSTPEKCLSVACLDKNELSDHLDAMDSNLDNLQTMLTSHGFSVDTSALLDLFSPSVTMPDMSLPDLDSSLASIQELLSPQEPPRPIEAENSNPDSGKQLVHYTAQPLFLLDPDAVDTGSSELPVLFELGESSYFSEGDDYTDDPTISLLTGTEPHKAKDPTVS

[29] = target: Photoreceptor-specific nuclear receptor (Homo sapiens, UniProt Q9Y5X4); test: ligands suppressing NR2E3 nuclear receptor activity – biochemical, TR-FRET, dose response (AID 463256); assay type: functional
[30] = target: Luciferin 4-monooxygenase (Photinus pyralis, UniProt P08659); test: inhibition of purified Photinus pyralis luciferase – biochemical, luminescence, dose response (AID 1891)
[31] = target: T6, RNA-binding protein pos-1 (Caenorhabditis elegans, UniProt G5EF15); test: disruptors of C. elegans POS-1 RNA interaction – biochemical, fluorescence polarization, dose response (AID 1964);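 further: purified POS-1 fused to maltose binding protein made in E. coli; potency of compounds blocking POS-1 binding to fluorescent RNA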
T6 sequence (G5EF15 whole entry): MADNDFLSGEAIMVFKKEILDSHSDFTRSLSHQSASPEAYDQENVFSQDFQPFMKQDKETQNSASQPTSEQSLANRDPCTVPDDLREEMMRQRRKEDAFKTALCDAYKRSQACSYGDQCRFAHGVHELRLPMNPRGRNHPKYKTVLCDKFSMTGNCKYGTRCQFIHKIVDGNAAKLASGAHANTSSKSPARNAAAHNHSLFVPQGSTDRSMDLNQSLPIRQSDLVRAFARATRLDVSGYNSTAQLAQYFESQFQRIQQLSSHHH

ORF 73 = ORF 73 (Human herpesvirus 8, UniProt O40947); test: KSHV LANA DNA-binding disruption – biochemical, fluorescence polarization, cherry-picked samples, dose response (AID 504725); set-up: species or system Human gammaherpesvirus 8;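 further: fluorescence polarization of a labeled DNA duplex reporting LANA DNA binding; potency is for inhibitors that block LANA binding to the DNA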
[32] = target: Peroxisome proliferator-activated receptor gamma/Nuclear receptor corepressor 2 (Homo sapiens, UniProt P37231+Q9Y618); test: Counterscreen for NR2E3 inverse agonists: TR-FRET-based biochemical high throughput dose response assay to identify inverse agonists of the interaction between peroxisome proliferator-activated receptor gamma (PPARg) and nuclear receptor co-repressor 2 (NCOR2).; assay type: functional

T1 sequence (P65502 whole entry): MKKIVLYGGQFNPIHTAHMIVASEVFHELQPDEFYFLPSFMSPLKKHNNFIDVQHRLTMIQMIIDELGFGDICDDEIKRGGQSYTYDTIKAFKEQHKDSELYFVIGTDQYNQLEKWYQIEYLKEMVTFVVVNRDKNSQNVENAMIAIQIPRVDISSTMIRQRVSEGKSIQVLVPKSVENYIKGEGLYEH
Sequence of Luciferin 4-monooxygenase (P08659 whole entry, the tested form may be a part): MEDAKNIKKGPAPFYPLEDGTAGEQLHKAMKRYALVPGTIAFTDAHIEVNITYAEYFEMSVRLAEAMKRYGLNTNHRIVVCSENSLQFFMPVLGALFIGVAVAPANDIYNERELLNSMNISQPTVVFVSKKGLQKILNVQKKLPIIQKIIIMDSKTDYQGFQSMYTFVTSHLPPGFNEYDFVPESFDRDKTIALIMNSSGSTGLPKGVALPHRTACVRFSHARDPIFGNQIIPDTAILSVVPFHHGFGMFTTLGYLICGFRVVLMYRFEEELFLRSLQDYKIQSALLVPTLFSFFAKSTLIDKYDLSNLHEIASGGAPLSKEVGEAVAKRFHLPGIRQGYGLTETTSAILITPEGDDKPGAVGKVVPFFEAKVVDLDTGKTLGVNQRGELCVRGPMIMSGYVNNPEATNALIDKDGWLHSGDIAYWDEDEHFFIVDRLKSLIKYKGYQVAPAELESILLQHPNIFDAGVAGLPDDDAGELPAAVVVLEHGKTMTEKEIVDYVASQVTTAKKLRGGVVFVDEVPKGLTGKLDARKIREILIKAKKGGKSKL
Sequence of Paired box protein Pax-8 (Q06710 whole entry): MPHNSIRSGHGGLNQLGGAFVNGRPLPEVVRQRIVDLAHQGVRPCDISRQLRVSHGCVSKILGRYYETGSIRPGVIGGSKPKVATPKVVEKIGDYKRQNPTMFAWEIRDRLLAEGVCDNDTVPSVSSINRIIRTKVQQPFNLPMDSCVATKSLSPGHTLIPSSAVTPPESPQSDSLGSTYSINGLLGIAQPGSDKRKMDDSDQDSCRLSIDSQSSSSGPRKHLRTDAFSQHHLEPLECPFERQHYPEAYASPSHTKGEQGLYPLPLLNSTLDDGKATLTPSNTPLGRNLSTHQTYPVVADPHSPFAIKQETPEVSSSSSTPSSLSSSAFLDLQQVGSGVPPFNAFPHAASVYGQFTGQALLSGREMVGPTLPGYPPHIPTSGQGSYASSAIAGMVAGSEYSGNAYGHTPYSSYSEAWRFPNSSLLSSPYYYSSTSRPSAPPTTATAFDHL
Sequence of Photoreceptor-specific nuclear receptor (Q9Y5X4 whole entry): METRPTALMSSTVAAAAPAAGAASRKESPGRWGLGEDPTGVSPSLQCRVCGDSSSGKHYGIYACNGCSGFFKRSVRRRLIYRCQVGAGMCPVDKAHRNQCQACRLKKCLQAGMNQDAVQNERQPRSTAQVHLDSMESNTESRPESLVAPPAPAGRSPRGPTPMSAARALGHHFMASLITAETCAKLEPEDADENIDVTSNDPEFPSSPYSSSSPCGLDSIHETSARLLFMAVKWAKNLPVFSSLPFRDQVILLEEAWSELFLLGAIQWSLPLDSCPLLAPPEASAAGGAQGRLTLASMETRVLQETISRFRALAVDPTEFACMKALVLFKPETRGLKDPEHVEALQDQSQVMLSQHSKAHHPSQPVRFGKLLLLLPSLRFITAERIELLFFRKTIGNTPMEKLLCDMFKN
Sequence of ORF 73 (O40947 whole entry): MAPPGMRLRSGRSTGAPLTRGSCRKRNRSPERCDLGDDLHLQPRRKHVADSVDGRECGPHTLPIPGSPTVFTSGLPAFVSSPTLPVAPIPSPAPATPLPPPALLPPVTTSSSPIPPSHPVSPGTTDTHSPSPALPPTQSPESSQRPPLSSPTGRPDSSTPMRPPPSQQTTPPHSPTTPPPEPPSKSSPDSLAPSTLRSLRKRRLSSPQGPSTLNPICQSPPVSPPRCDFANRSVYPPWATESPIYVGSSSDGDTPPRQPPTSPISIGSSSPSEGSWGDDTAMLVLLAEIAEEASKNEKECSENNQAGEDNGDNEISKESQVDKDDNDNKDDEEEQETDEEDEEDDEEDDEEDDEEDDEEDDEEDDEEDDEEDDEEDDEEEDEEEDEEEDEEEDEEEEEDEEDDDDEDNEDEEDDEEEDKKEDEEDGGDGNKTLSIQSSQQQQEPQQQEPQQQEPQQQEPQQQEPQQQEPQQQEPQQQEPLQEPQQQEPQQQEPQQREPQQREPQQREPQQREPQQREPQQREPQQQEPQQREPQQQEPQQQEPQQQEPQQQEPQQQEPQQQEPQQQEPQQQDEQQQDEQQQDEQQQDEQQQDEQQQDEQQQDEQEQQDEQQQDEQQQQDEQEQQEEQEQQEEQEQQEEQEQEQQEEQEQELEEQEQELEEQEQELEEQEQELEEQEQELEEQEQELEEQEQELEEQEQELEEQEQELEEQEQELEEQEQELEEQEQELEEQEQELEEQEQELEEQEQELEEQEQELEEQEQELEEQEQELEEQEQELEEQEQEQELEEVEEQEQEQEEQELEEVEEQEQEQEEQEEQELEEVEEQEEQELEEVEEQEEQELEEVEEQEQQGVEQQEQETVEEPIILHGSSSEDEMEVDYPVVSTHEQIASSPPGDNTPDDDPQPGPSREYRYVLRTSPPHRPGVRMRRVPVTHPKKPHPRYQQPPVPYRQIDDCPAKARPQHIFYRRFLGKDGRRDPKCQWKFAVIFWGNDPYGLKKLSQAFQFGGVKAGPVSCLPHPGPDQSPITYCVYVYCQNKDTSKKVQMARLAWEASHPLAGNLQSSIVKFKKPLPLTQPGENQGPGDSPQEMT
Sequence of Keap1/Nrf2 (Q16236 whole entry): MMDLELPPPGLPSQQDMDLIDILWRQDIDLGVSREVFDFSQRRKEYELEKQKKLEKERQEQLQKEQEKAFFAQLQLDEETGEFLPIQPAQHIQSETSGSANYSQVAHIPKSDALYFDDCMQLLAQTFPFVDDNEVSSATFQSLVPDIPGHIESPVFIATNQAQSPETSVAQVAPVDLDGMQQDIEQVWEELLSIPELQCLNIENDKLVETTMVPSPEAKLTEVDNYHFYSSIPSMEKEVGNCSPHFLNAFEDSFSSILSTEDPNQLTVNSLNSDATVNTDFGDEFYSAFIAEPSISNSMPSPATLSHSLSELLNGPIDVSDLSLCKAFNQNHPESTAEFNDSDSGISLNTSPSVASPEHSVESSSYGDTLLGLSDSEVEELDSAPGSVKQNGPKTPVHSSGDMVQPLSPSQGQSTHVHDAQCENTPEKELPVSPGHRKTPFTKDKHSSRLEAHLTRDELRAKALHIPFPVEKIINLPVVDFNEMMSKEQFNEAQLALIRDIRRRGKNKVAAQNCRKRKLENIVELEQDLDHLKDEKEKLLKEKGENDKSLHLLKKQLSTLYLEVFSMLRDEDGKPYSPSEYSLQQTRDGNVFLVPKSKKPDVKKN
Sequence of Keap1/Nrf2 (Q14145 whole entry): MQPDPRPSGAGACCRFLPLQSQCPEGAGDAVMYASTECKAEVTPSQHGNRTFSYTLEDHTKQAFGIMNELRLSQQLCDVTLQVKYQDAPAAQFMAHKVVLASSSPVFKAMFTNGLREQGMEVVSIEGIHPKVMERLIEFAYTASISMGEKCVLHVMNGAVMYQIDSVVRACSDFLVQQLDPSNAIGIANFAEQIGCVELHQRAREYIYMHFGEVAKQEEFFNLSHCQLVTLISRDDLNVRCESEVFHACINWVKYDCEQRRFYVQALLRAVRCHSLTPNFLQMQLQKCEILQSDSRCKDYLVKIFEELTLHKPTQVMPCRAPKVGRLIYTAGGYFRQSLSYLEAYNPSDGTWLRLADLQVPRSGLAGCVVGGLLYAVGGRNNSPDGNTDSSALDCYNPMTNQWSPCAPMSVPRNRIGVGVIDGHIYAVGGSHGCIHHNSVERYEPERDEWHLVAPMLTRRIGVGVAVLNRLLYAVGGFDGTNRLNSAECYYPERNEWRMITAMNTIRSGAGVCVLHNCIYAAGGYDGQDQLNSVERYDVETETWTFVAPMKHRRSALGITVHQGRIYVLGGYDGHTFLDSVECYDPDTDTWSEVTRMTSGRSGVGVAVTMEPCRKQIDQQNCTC

COc1cc2c(cc1NC(=O)c1cccc([N+](=O)[O-])c1C)oc1ccccc12
AC50 [1]: 41.4 µM (active) | AC50 [2]: 2.65 µM (active)

Cc1ccc2nc(NNC(=O)c3ccc(S(=O)(=O)N4CCc5ccccc5C4)cc3)sc2c1
AC50 [3]: 18.3 µM (active) | EC50 [4]: 0.904 µM (active) | AC50 [5]: 31.1 µM (active) | AC50 [6]: 13.7 µM (active) | AC50 (Escherichia coli): 39 µM (active) | IC50 [7]: 52.7 µM (active) | IC50 [8]: 9.9 µM (active) | EC50 (cells [9]): > 350 µM (not active) | IC50 [10]: 3.03 µM (active) | AC50 [11]: 1.62 µM (active) | EC50 [12]: > 100 µM (inactive) | AC50 [13]: 19.5 µM (active) | AC50 [14]: 1.78 µM (active) | AC50 [15]: 5.81 µM (active) | EC50 (Streptococcus): > 150 µM (not active) | AC50 [2]: 3.74 µM (active) | EC50 [16]: 0.499 µM (active) | AC50 [17]: 9.99 µM (active) | AC50 [18]: 2.88 µM (active) | EC50 [19]: 3.65 µM (active) | IC50 [20]: 2.7 µM (active) | EC50 (Streptokinase A): > 150 µM (not active) | AC50 [21]: 6.18 µM (active) | EC50 (cells [22]): 13.5 µM (active) | AC50 [23]: 14.8 µM (active) | AC50 [24]: 31.1 µM (active) | AC50 (INS1): 2.17 µM (active) | AC50 (Paired box protein Pax-8): 3.01 µM (active) | AC50 [25]: 9.32 µM (active) | AC50 [26]: 8.28 µM (active)

O=c1[nH]c2c(s1)C=Nc1ccccc1N2
AC50 (Keap1/Nrf2): 9.53 µM (active) | EC50 [27]: 1.23 µM (inconclusive) | EC50 [28]: > 260 µM (inactive) | IC50 [29]: 3.14 µM (active) | EC50 (Streptokinase A): > 150 µM (not active) | EC50 [30]: > 112 µM (not active) | EC50 [31]: 2.6 µM (inconclusive) | AC50 (ORF 73): 5.1 µM (active) | IC50 [32]: 2.26 µM (active)
